Results published in ChEMBL document CHEMBL2401715, “Synthesis, antitumor and antibacterial activities of some novel tetrahydrobenzo[4,5]thieno[2,3-d]pyrimidine derivatives” (Eur J Med Chem, 2013).

system: MCF7; assay: Cytotoxicity against human MCF7 cells assessed as cell survival after 48 hrs by SRB assay; type: functional, cell-based; settings: MCF7, 48 h

`COc1cc(-c2nc3sc4c(c3c(=O)n2-c2nc3cc(C)ccc3s2)CCCC4)cc(OC)c1OC` and `COc1cc(-c2nc3sc4c(c3c(=O)n2-c2cc(=O)[nH]c(=O)[nH]2)CCCC4)cc(OC)c1OC` are within 1.5-fold of each other in IC50: 65.6 µM for the first, 83.3 µM for the second.

First: COc1cc(-c2nc3sc4c(c3c(=O)n2C(N)=S)CCCC4)cc(OC)c1OC
Second: COc1cc(-c2nc3sc4c(c3c(=O)n2C(N)=O)CCCC4)cc(OC)c1OC
The IC50 of the first is 3-fold higher: 77.6 µM for the first, 26.2 µM for the second. The second is the more potent here.

`COc1cc(-c2nc3sc4c(c3c(=O)n2C(=O)NO)CCCC4)cc(OC)c1OC` and `COc1cc(-c2nc3sc4c(c3c(=O)n2C2CONC2=O)CCCC4)cc(OC)c1OC` (stereo not given) are within 1.5-fold of each other in IC50: 71.2 µM for the first, 54.9 µM for the second.

First: COc1cc(-c2nc3sc4c(c3c(=O)n2-c2ccc(C(=O)O)cc2)CCCC4)cc(OC)c1OC
Second: COc1cc(-c2nc3sc4c(c3c(=O)n2-c2ccc(S(N)(=O)=O)cc2)CCCC4)cc(OC)c1OC
The IC50 of the first is higher: over 203 µM for the first, 37.1 µM for the second.

Going from `COc1cc(-c2nc3sc4c(c3c(=O)n2C(Cc2ccccc2)C(=O)O)CCCC4)cc(OC)c1OC` (stereo not given) to `COc1cc(-c2nc3sc4c(c3c(=O)n2C(Cc2cc3ccccc3[nH]2)C(=O)O)CCCC4)cc(OC)c1OC` (stereo not given), the IC50 rises from 50.1 µM to over 179 µM.

system: Staphylococcus aureus; assay: Antibacterial activity against Staphylococcus aureus ATCC 12600 assessed as growth inhibition after 24 to 48 hrs by kirby-bauer disc diffusion method; type: functional; settings: not given; further: test concentration or dose not given here

Compared with `COc1cc(-c2nc3sc4c(c3c(=O)n2-c2nc3cc(C)ccc3s2)CCCC4)cc(OC)c1OC`, `COc1cc(-c2nc3sc4c(c3c(=O)n2-c2cc(=O)[nH]c(=O)[nH]2)CCCC4)cc(OC)c1OC` is lower in “diameter of the inhibition zone (DIZ)” value: 14 mm for the first, 11 mm for the second.

First: COc1cc(-c2nc3sc4c(c3c(=O)n2C(N)=S)CCCC4)cc(OC)c1OC
Second: COc1cc(-c2nc3sc4c(c3c(=O)n2C(N)=O)CCCC4)cc(OC)c1OC
The “diameter of the inhibition zone (DIZ)” value of the first is lower: 12 mm for the first, 16 mm for the second.

First: COc1cc(-c2nc3sc4c(c3c(=O)n2C(=O)NO)CCCC4)cc(OC)c1OC
Second: COc1cc(-c2nc3sc4c(c3c(=O)n2C2CONC2=O)CCCC4)cc(OC)c1OC (stereo not given)
The “diameter of the inhibition zone (DIZ)” value of the first is lower: 12 mm for the first, 15 mm for the second.

Compared with `COc1cc(-c2nc3sc4c(c3c(=O)n2-c2ccc(C(=O)O)cc2)CCCC4)cc(OC)c1OC`, `COc1cc(-c2nc3sc4c(c3c(=O)n2-c2ccc(S(N)(=O)=O)cc2)CCCC4)cc(OC)c1OC` is lower in “diameter of the inhibition zone (DIZ)” value: 11 mm for the first, 9 mm for the second.

First: COc1cc(-c2nc3sc4c(c3c(=O)n2C(Cc2ccccc2)C(=O)O)CCCC4)cc(OC)c1OC (stereo not given)
Second: COc1cc(-c2nc3sc4c(c3c(=O)n2C(Cc2cc3ccccc3[nH]2)C(=O)O)CCCC4)cc(OC)c1OC (stereo not given)
The “diameter of the inhibition zone (DIZ)” value of the first is higher: 10 mm for the first, 0 mm for the second.

system: Escherichia coli; assay: Antibacterial activity against Escherichia coli ATCC 11775 assessed as growth inhibition after 24 to 48 hrs by kirby-bauer disc diffusion method; type: functional, DSM 30083 = JCM 1649; settings: not given; further: test concentration or dose not given here

First: COc1cc(-c2nc3sc4c(c3c(=O)n2-c2nc3cc(C)ccc3s2)CCCC4)cc(OC)c1OC
Second: COc1cc(-c2nc3sc4c(c3c(=O)n2-c2cc(=O)[nH]c(=O)[nH]2)CCCC4)cc(OC)c1OC
The “diameter of the inhibition zone (DIZ)” value of the first is lower: 12 mm for the first, 14 mm for the second.

Compared with `COc1cc(-c2nc3sc4c(c3c(=O)n2C(N)=S)CCCC4)cc(OC)c1OC`, `COc1cc(-c2nc3sc4c(c3c(=O)n2C(N)=O)CCCC4)cc(OC)c1OC` is higher in “diameter of the inhibition zone (DIZ)” value: 14 mm for the first, 16 mm for the second.

Compared with `COc1cc(-c2nc3sc4c(c3c(=O)n2C(=O)NO)CCCC4)cc(OC)c1OC`, `COc1cc(-c2nc3sc4c(c3c(=O)n2C2CONC2=O)CCCC4)cc(OC)c1OC` (stereo not given) is higher in “diameter of the inhibition zone (DIZ)” value: 14 mm for the first, 17 mm for the second.

Going from `COc1cc(-c2nc3sc4c(c3c(=O)n2-c2ccc(C(=O)O)cc2)CCCC4)cc(OC)c1OC` to `COc1cc(-c2nc3sc4c(c3c(=O)n2-c2ccc(S(N)(=O)=O)cc2)CCCC4)cc(OC)c1OC`, the “diameter of the inhibition zone (DIZ)” value rises from 10 mm to 12 mm.

Compared with `COc1cc(-c2nc3sc4c(c3c(=O)n2C(Cc2ccccc2)C(=O)O)CCCC4)cc(OC)c1OC` (stereo not given), `COc1cc(-c2nc3sc4c(c3c(=O)n2C(Cc2cc3ccccc3[nH]2)C(=O)O)CCCC4)cc(OC)c1OC` (stereo not given) is lower in “diameter of the inhibition zone (DIZ)” value: 13 mm for the first, 0 mm for the second.

system: Bacillus subtilis; assay: Antibacterial activity against Bacillus subtilis ATCC 6051 assessed as growth inhibition after 24 to 48 hrs by kirby-bauer disc diffusion method; type: functional; settings: not given; further: test concentration or dose not given here

`COc1cc(-c2nc3sc4c(c3c(=O)n2-c2nc3cc(C)ccc3s2)CCCC4)cc(OC)c1OC` and `COc1cc(-c2nc3sc4c(c3c(=O)n2-c2cc(=O)[nH]c(=O)[nH]2)CCCC4)cc(OC)c1OC` are the same in “diameter of the inhibition zone (DIZ)” value: 11 mm for the first, 11 mm for the second.

Compared with `COc1cc(-c2nc3sc4c(c3c(=O)n2C(N)=S)CCCC4)cc(OC)c1OC`, `COc1cc(-c2nc3sc4c(c3c(=O)n2C(N)=O)CCCC4)cc(OC)c1OC` is higher in “diameter of the inhibition zone (DIZ)” value: 12 mm for the first, 16 mm for the second.

Going from `COc1cc(-c2nc3sc4c(c3c(=O)n2C(=O)NO)CCCC4)cc(OC)c1OC` to `COc1cc(-c2nc3sc4c(c3c(=O)n2C2CONC2=O)CCCC4)cc(OC)c1OC` (stereo not given), the “diameter of the inhibition zone (DIZ)” value rises from 13 mm to 15 mm.

First: COc1cc(-c2nc3sc4c(c3c(=O)n2-c2ccc(C(=O)O)cc2)CCCC4)cc(OC)c1OC
Second: COc1cc(-c2nc3sc4c(c3c(=O)n2-c2ccc(S(N)(=O)=O)cc2)CCCC4)cc(OC)c1OC
The “diameter of the inhibition zone (DIZ)” value of the first is lower: 12 mm for the first, 14 mm for the second.

Going from `COc1cc(-c2nc3sc4c(c3c(=O)n2C(Cc2ccccc2)C(=O)O)CCCC4)cc(OC)c1OC` (stereo not given) to `COc1cc(-c2nc3sc4c(c3c(=O)n2C(Cc2cc3ccccc3[nH]2)C(=O)O)CCCC4)cc(OC)c1OC` (stereo not given), the “diameter of the inhibition zone (DIZ)” value falls from 12 mm to 0 mm.

system: Pseudomonas aeruginosa; assay: Antibacterial activity against Pseudomonas aeruginosa ATCC 10145 assessed as growth inhibition after 24 to 48 hrs by kirby-bauer disc diffusion method; type: functional; settings: not given; further: test concentration or dose not given here

Going from `COc1cc(-c2nc3sc4c(c3c(=O)n2-c2nc3cc(C)ccc3s2)CCCC4)cc(OC)c1OC` to `COc1cc(-c2nc3sc4c(c3c(=O)n2-c2cc(=O)[nH]c(=O)[nH]2)CCCC4)cc(OC)c1OC`, the “diameter of the inhibition zone (DIZ)” value rises from 12 mm to 14 mm.

Compared with `COc1cc(-c2nc3sc4c(c3c(=O)n2C(N)=S)CCCC4)cc(OC)c1OC`, `COc1cc(-c2nc3sc4c(c3c(=O)n2C(N)=O)CCCC4)cc(OC)c1OC` is higher in “diameter of the inhibition zone (DIZ)” value: 13 mm for the first, 17 mm for the second.

Going from `COc1cc(-c2nc3sc4c(c3c(=O)n2C(=O)NO)CCCC4)cc(OC)c1OC` to `COc1cc(-c2nc3sc4c(c3c(=O)n2C2CONC2=O)CCCC4)cc(OC)c1OC` (stereo not given), the “diameter of the inhibition zone (DIZ)” value rises from 13 mm to 14 mm.

First: COc1cc(-c2nc3sc4c(c3c(=O)n2-c2ccc(C(=O)O)cc2)CCCC4)cc(OC)c1OC
Second: COc1cc(-c2nc3sc4c(c3c(=O)n2-c2ccc(S(N)(=O)=O)cc2)CCCC4)cc(OC)c1OC
The “diameter of the inhibition zone (DIZ)” value of the first is lower: 10 mm for the first, 13 mm for the second.

Going from `COc1cc(-c2nc3sc4c(c3c(=O)n2C(Cc2ccccc2)C(=O)O)CCCC4)cc(OC)c1OC` (stereo not given) to `COc1cc(-c2nc3sc4c(c3c(=O)n2C(Cc2cc3ccccc3[nH]2)C(=O)O)CCCC4)cc(OC)c1OC` (stereo not given), the “diameter of the inhibition zone (DIZ)” value falls from 13 mm to 0 mm.

system: HepG2; assay: Cytotoxicity against human HepG2 cells assessed as cell survival after 48 hrs by SRB assay; type: functional, cell-based; settings: HepG2, 48 h

First: COc1cc(-c2nc3sc4c(c3c(=O)n2-c2nc3cc(C)ccc3s2)CCCC4)cc(OC)c1OC
Second: COc1cc(-c2nc3sc4c(c3c(=O)n2-c2cc(=O)[nH]c(=O)[nH]2)CCCC4)cc(OC)c1OC
The IC50 of the first is higher: over 192 µM for the first, 86.4 µM for the second.

Going from `COc1cc(-c2nc3sc4c(c3c(=O)n2C(N)=S)CCCC4)cc(OC)c1OC` to `COc1cc(-c2nc3sc4c(c3c(=O)n2C(N)=O)CCCC4)cc(OC)c1OC`, the IC50 falls from over 232 µM to 25.8 µM.

Going from `COc1cc(-c2nc3sc4c(c3c(=O)n2C(=O)NO)CCCC4)cc(OC)c1OC` to `COc1cc(-c2nc3sc4c(c3c(=O)n2C2CONC2=O)CCCC4)cc(OC)c1OC` (stereo not given), the IC50 rises from 14.4 µM to 24.9 µM (1.7-fold).

Going from `COc1cc(-c2nc3sc4c(c3c(=O)n2-c2ccc(C(=O)O)cc2)CCCC4)cc(OC)c1OC` to `COc1cc(-c2nc3sc4c(c3c(=O)n2-c2ccc(S(N)(=O)=O)cc2)CCCC4)cc(OC)c1OC`, the IC50 rises from 29.6 µM to over 190 µM. The first is the more potent here.

Going from `COc1cc(-c2nc3sc4c(c3c(=O)n2C(Cc2ccccc2)C(=O)O)CCCC4)cc(OC)c1OC` (stereo not given) to `COc1cc(-c2nc3sc4c(c3c(=O)n2C(Cc2cc3ccccc3[nH]2)C(=O)O)CCCC4)cc(OC)c1OC` (stereo not given), the IC50 rises from 19.4 µM to 30.9 µM (1.6-fold).
